According to US20210038515A1 (Azurity Pharmaceuticals, Inc., priority 2014, published 2021):

Test system: Clostridium difficile
Test: Agar dilution MIC of vancomycin preparations (Sigma, Cutis), diluent, Na benzoate and Na citrate
Assay type: cell-based
Details: for MIC, AV (average): average of triplicate; for MIC, VAN-1: replicate 1; for MIC, VAN-2: replicate 2; for MIC, VAN-3: replicate 3
Procedure: Introduction: The purpose of the study was to compare the MICs obtained with the formulation of vancomycin HCL of the invention (Cutis) to formulations obtained using a vancomycin HCL reference standard powder obtained from Sigma. The Example also involves the analysis of a solution or diluent to determine if it has antimicrobial activity at the concentrations present in the agar dilution test.
The C. difficile were tested by agar dilution according to the procedures in the Clinical and Laboratory Standards Institute. 2012. Methods for antimicrobial susceptibility testing of anaerobic bacteria; approved standard-seventh edition.
Other anaerobic organisms included clinical isolates of Bifidobacterium adolescentis and Bacteroides fragilis. Clostridium difficile ATCC 700057 was included as a quality control strain.
The C. difficile isolates were recovered from patients with CDI during the past two years and stored at −70° C. in 20% skim milk. Ribotyping was performed by another reference laboratory. The strains were taken from the freezer and subcultured at least twice to ensure purity and good growth.
On the day of testing, they were suspended in Brucella broth to the turbidity of the 0.5 McFarland standard for testing.
Stock solution of the Sigma vancomycin was prepared in water and stored at −70° C. On the day of testing, it was thawed and further diluted in water to obtain the desired range of 16-0.125 μg/ml. The Cutis vancomycin (25 mg/ml) was reconstituted on the day of testing and further diluted for a final range of 16-0.125 μg/ml in the test. The antimicrobials were added to molten Brucella agar supplemented with vitamin K and hemin to prepare the plates. Drug-free growth controls were included for testing before and after each set of plates. All testing was done in triplicate.
The organisms were pipetted into the wells of the Steers replicator head and applied to the plates with the multi-pronged replicator. The final concentration of organisms was ˜10^5 CFU/spot.
The plates were incubated in the anaerobic chamber incubator for 44 h and examined for growth.
The Cutis diluent comprises: water, about 0.12% (w/v) citric acid (anhydrous), 0.2% (w/v) sucralose, about 0.05% (w/v) artificial grape flavor, 0.1% (w/v) sodium benzoate, about 0.0002% (w/v) D&C Yellow No. 10 and about 0.000038% (w/v) FD&C Red No. 40.

[1] = ATCC 700057 quality control strain, first set (r41)
[2] = ATCC 700057 quality control strain, second set (r74)

With `CN[C@H](CC(C)C)C(=O)N[C@H]1C(=O)N[C@@H](CC(N)=O)C(=O)N[C@H]2C(=O)N[C@H]3C(=O)N[C@H](C(=O)N[C@H](C(=O)O)c4cc(O)cc(O)c4-c4cc3ccc4O)[C@H](O)c3ccc(c(Cl)c3)Oc3cc2cc(c3O[C@@H]2O[C@H](CO)[C@@H](O)[C@H](O)[C@H]2O[C@H]2C[C@](C)(N)[C@H](O)[C@H](C)O2)Oc2ccc(cc2Cl)[C@H]1O.Cl` [Sigma] the “MIC, AV (average)” value [1] was 2 µg/mL, the “MIC, VAN-1” value [1] was 2 µg/mL and the “MIC, VAN-2” value [1] was 2 µg/mL. The “MIC, VAN-3” value [1] was 2 µg/mL, the “MIC, AV (average)” value [2] was 2 µg/mL and the “MIC, VAN-1” value [2] was 2 µg/mL. For the same compound, the “MIC, VAN-2” value [2] was 2 µg/mL, the “MIC, VAN-3” value [2] was 2 µg/mL and the “MIC, AV (average)” value (RMA 24504, ribotype 027) was 2 µg/mL. The “MIC, VAN-1” value (RMA 24504, ribotype 027) was 2 µg/mL, the “MIC, VAN-2” value (RMA 24504, ribotype 027) was 2 µg/mL and the “MIC, VAN-3” value (RMA 24504, ribotype 027) was 2 µg/mL. For the same compound, the “MIC, AV (average)” value (RMA 24510, ribotype 027) was 1.7 µg/mL, the “MIC, VAN-1” value (RMA 24510, ribotype 027) was 2 µg/mL and the “MIC, VAN-2” value (RMA 24510, ribotype 027) was 2 µg/mL. For the same compound, the “MIC, VAN-3” value (RMA 24510, ribotype 027) was 1 µg/mL, the “MIC, AV (average)” value (RMA 24519, ribotype 027) was 1.7 µg/mL and the “MIC, VAN-1” value (RMA 24519, ribotype 027) was 2 µg/mL. For the same compound, the “MIC, VAN-2” value (RMA 24519, ribotype 027) was 2 µg/mL, the “MIC, VAN-3” value (RMA 24519, ribotype 027) was 1 µg/mL and the “MIC, AV (average)” value (RMA 24527, ribotype 014) was 2 µg/mL. The “MIC, VAN-1” value (RMA 24527, ribotype 014) was 2 µg/mL, the “MIC, VAN-2” value (RMA 24527, ribotype 014) was 2 µg/mL and the “MIC, VAN-3” value (RMA 24527, ribotype 014) was 2 µg/mL. The “MIC, AV (average)” value (RMA 24529, ribotype 014) was 2 µg/mL, the “MIC, VAN-1” value (RMA 24529, ribotype 014) was 2 µg/mL and the “MIC, VAN-2” value (RMA 24529, ribotype 014) was 2 µg/mL. The “MIC, VAN-3” value (RMA 24529, ribotype 014) was 2 µg/mL, the “MIC, AV (average)” value (RMA 24541, ribotype 020) was 1.7 µg/mL and the “MIC, VAN-1” value (RMA 24541, ribotype 020) was 1 µg/mL. For the same compound, the “MIC, VAN-2” value (RMA 24541, ribotype 020) was 2 µg/mL, the “MIC, VAN-3” value (RMA 24541, ribotype 020) was 2 µg/mL and the “MIC, AV (average)” value (RMA 24543, ribotype 020) was 1.3 µg/mL. For the same compound, the “MIC, VAN-1” value (RMA 24543, ribotype 020) was 1 µg/mL, the “MIC, VAN-2” value (RMA 24543, ribotype 020) was 1 µg/mL and the “MIC, VAN-3” value (RMA 24543, ribotype 020) was 2 µg/mL. For the same compound, the “MIC, AV (average)” value (RMA 24547, ribotype 014) was 1 µg/mL, the “MIC, VAN-1” value (RMA 24547, ribotype 014) was 1 µg/mL and the “MIC, VAN-2” value (RMA 24547, ribotype 014) was 1 µg/mL. The “MIC, VAN-3” value (RMA 24547, ribotype 014) was 1 µg/mL, the “MIC, AV (average)” value (RMA 24560, ribotype 078) was 1.7 µg/mL and the “MIC, VAN-1” value (RMA 24560, ribotype 078) was 2 µg/mL. For the same compound, the “MIC, VAN-2” value (RMA 24560, ribotype 078) was 2 µg/mL, the “MIC, VAN-3” value (RMA 24560, ribotype 078) was 1 µg/mL and the “MIC, AV (average)” value (RMA 24561, ribotype 078) was 2 µg/mL. The “MIC, VAN-1” value (RMA 24561, ribotype 078) was 2 µg/mL, the “MIC, VAN-2” value (RMA 24561, ribotype 078) was 2 µg/mL and the “MIC, VAN-3” value (RMA 24561, ribotype 078) was 2 µg/mL. The “MIC, AV (average)” value (RMA 24567, ribotype 020) was 2 µg/mL, the “MIC, VAN-1” value (RMA 24567, ribotype 020) was 2 µg/mL and the “MIC, VAN-2” value (RMA 24567, ribotype 020) was 2 µg/mL. For the same compound, the “MIC, VAN-3” value (RMA 24567, ribotype 020) was 2 µg/mL, the “MIC, AV (average)” value (RMA 24575, ribotype 078) was 2.7 µg/mL and the “MIC, VAN-1” value (RMA 24575, ribotype 078) was 2 µg/mL. For the same compound, the “MIC, VAN-2” value (RMA 24575, ribotype 078) was 4 µg/mL, the “MIC, VAN-3” value (RMA 24575, ribotype 078) was 2 µg/mL and the “MIC, AV (average)” value (RMA 24594, ribotype 106) was 3.3 µg/mL. For the same compound, the “MIC, VAN-1” value (RMA 24594, ribotype 106) was 4 µg/mL, the “MIC, VAN-2” value (RMA 24594, ribotype 106) was 2 µg/mL and the “MIC, VAN-3” value (RMA 24594, ribotype 106) was 4 µg/mL. For the same compound, the “MIC, AV (average)” value (RMA 24601, ribotype 106) was 2 µg/mL, the “MIC, VAN-1” value (RMA 24601, ribotype 106) was 2 µg/mL and the “MIC, VAN-2” value (RMA 24601, ribotype 106) was 2 µg/mL. For the same compound, the “MIC, VAN-3” value (RMA 24601, ribotype 106) was 2 µg/mL, the “MIC, AV (average)” value (RMA 24605, ribotype 002) was 2 µg/mL and the “MIC, VAN-1” value (RMA 24605, ribotype 002) was 2 µg/mL. For the same compound, the “MIC, VAN-2” value (RMA 24605, ribotype 002) was 2 µg/mL, the “MIC, VAN-3” value (RMA 24605, ribotype 002) was 2 µg/mL and the “MIC, AV (average)” value (RMA 24607, ribotype 106) was 2 µg/mL. For the same compound, the “MIC, VAN-1” value (RMA 24607, ribotype 106) was 2 µg/mL, the “MIC, VAN-2” value (RMA 24607, ribotype 106) was 2 µg/mL and the “MIC, VAN-3” value (RMA 24607, ribotype 106) was 2 µg/mL. The “MIC, AV (average)” value (RMA 24608, ribotype 002) was 2 µg/mL, the “MIC, VAN-1” value (RMA 24608, ribotype 002) was 2 µg/mL and the “MIC, VAN-2” value (RMA 24608, ribotype 002) was 2 µg/mL. The “MIC, VAN-3” value (RMA 24608, ribotype 002) was 2 µg/mL, the “MIC, AV (average)” value (RMA 24615, ribotype 005) was 2 µg/mL and the “MIC, VAN-1” value (RMA 24615, ribotype 005) was 2 µg/mL. The “MIC, VAN-2” value (RMA 24615, ribotype 005) was 2 µg/mL, the “MIC, VAN-3” value (RMA 24615, ribotype 005) was 2 µg/mL and the “MIC, AV (average)” value (RMA 24628, ribotype 012) was 2 µg/mL. For the same compound, the “MIC, VAN-1” value (RMA 24628, ribotype 012) was 2 µg/mL, the “MIC, VAN-2” value (RMA 24628, ribotype 012) was 2 µg/mL and the “MIC, VAN-3” value (RMA 24628, ribotype 012) was 2 µg/mL. For the same compound, the “MIC, AV (average)” value (RMA 24641, ribotype 001/072) was 2 µg/mL, the “MIC, VAN-1” value (RMA 24641, ribotype 001/072) was 2 µg/mL and the “MIC, VAN-2” value (RMA 24641, ribotype 001/072) was 2 µg/mL. For the same compound, the “MIC, VAN-3” value (RMA 24641, ribotype 001/072) was 2 µg/mL, the “MIC, AV (average)” value (RMA 24643, ribotype 001/072) was 2 µg/mL and the “MIC, VAN-1” value (RMA 24643, ribotype 001/072) was 2 µg/mL. The “MIC, VAN-2” value (RMA 24643, ribotype 001/072) was 2 µg/mL, the “MIC, VAN-3” value (RMA 24643, ribotype 001/072) was 2 µg/mL and the “MIC, AV (average)” value (RMA 24646, ribotype 001/072) was 2 µg/mL. For the same compound, the “MIC, VAN-1” value (RMA 24646, ribotype 001/072) was 2 µg/mL, the “MIC, VAN-2” value (RMA 24646, ribotype 001/072) was 2 µg/mL and the “MIC, VAN-3” value (RMA 24646, ribotype 001/072) was 2 µg/mL. The “MIC, AV (average)” value (RMA 24655, ribotype 005) was 2 µg/mL, the “MIC, VAN-1” value (RMA 24655, ribotype 005) was 2 µg/mL and the “MIC, VAN-2” value (RMA 24655, ribotype 005) was 2 µg/mL. For the same compound, the “MIC, VAN-3” value (RMA 24655, ribotype 005) was 2 µg/mL, the “MIC, AV (average)” value (RMA 24678, ribotype 012) was 4 µg/mL and the “MIC, VAN-1” value (RMA 24678, ribotype 012) was 4 µg/mL. The “MIC, VAN-2” value (RMA 24678, ribotype 012) was 4 µg/mL, the “MIC, VAN-3” value (RMA 24678, ribotype 012) was 4 µg/mL and the “MIC, AV (average)” value (RMA 24683, ribotype 027) was 2 µg/mL. For the same compound, the “MIC, VAN-1” value (RMA 24683, ribotype 027) was 2 µg/mL, the “MIC, VAN-2” value (RMA 24683, ribotype 027) was 2 µg/mL and the “MIC, VAN-3” value (RMA 24683, ribotype 027) was 2 µg/mL.
